Laboratory results: patent US10799507B2, “5-(7H-pyrrolo[2,3-d]pyrimidin-4-yl)-5-azaspiro[2.5]octane-8-carboxylic acid derivatives as novel JAK kinase inhibitors” (LEO Pharma A/S, priority 2017, dated 2020)

What was measured:
[1] = target: JAK3 (Homo sapiens (Human), UniProt P52333); assay: JAK kinase assay (HTRF), JAK3; assay type: biochemical; conditions: catalytic domain, ATP at Km (2 μM)
Method in brief: (§1)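 HTRF read-out of biotinylated TK peptide phosphorylation (1 μM) after a 20-30 min RT reaction in pH 7.0 Hepes buffer with 5 mM MgCl2 and 0.75% DMSO. JAK3 (His-tagged catalytic domain) used 2 μM ATP; TYK2 (GST-tagged, aa 871-1187) used 13 μM ATP plus 50 nM SEB, each at ATP Km.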

[2] = in vitro metabolic stability in human liver microsomes; assay type: in vitro ADME; conditions: human, liver microsomes, 0.5 μM compound, 0.5 mg/mL microsomes, NADPH, 40 min, 37° C.; read-out: Human liver microsome Clapp (apparent intrinsic clearance)
Protocol: To assess the in vitro metabolic stability, the compounds (0.5 μM) were incubated in duplicates with human liver microsomes (0.5 mg/mL) in phosphate buffer and NADPH, in 96-well plates for 40 min (37° C.), using a liquid handling robot (Hamilton Microlab Star). Sample aliquots were taken at 0, 5, 10, 20 and 40 min, and dispensed into cold acetonitrile, in order to stop the reactions. The plates were centrifuged for 30 minutes before the samples were analyzed using liquid chromatography coupled to a time-of-flight mass spectrometer (AB Sciex API5600). The compound depletion over time was used to estimate the elimination rate constant, from which the apparent intrinsic clearance, Clapp, was calculated and the values are listed in Table 2.

[3] = target: JAK1 (Homo sapiens (Human), UniProt P23458); assay: JAK kinase assay (HTRF), JAK1; assay type: biochemical; conditions: catalytic domain, ATP at Km (7 μM)
Method in brief: (§2)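 Catalytic-domain human JAK1 (GST-tagged, aa 850-1154) or His-tagged JAK2, baculovirus-expressed, phosphorylated 1 µM biotinylated TK peptide at Km ATP (JAK1 7 µM, 10 mM MgCl2, 50 nM SEB; JAK2 4 µM, 5 mM MgCl2) in pH 7.0 Hepes, 20-30 min RT. EDTA stop; overnight streptavidin-XL665/cryptate HTRF read.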

[4] = target: JAK2 (Homo sapiens (Human), UniProt O60674); assay: JAK kinase assay (HTRF), JAK2; assay type: biochemical; conditions: catalytic domain, ATP at Km (4 μM)
Method in brief: as §2

[5] = target: TYK2 (Homo sapiens (Human), UniProt P29597); assay: JAK kinase assay (HTRF), TYK2; assay type: biochemical; conditions: catalytic domain, ATP at Km (13 μM)
Method in brief: as §1

JAK2, sequence (O60674 849-1124): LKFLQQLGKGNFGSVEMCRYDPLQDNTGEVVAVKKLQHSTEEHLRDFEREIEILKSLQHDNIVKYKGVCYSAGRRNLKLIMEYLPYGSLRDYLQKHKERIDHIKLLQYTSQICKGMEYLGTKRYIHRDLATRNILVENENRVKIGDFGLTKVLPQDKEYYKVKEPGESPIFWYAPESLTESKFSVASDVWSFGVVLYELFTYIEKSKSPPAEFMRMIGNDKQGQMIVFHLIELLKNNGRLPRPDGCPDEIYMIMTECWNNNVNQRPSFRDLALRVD
JAK3, sequence (P52333 822-1111): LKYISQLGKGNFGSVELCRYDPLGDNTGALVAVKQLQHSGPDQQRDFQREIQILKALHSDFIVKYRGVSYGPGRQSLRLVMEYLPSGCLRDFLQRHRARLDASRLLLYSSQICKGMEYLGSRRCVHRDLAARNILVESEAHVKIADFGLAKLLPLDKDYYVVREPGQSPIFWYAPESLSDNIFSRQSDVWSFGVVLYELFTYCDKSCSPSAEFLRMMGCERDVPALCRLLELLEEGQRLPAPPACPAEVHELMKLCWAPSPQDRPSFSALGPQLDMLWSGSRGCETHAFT
TYK2, sequence (P29597 871-1187): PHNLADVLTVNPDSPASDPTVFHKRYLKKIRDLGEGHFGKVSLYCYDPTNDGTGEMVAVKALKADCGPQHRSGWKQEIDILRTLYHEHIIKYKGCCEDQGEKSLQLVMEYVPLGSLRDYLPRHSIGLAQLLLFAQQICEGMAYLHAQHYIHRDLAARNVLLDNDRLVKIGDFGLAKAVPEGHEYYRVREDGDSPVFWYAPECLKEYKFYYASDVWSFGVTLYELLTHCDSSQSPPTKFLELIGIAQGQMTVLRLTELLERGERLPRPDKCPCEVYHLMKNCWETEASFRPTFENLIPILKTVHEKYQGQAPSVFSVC
JAK1, sequence (P23458 850-1154): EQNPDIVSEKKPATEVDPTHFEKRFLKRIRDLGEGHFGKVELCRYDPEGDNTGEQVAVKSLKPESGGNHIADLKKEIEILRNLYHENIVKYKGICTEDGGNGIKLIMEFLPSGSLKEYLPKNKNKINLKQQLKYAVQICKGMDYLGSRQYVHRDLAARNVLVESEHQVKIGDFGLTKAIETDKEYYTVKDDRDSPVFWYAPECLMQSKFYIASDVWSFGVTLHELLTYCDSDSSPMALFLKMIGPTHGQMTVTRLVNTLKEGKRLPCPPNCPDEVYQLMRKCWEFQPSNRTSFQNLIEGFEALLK

SMILES | EC50 [1] [nM] | CLint scaled at 0.5 μM [2] [mL/min/kg] | EC50 [3] [nM] | EC50 [4] [nM] | EC50 [5] [nM]
O=C(N[C@H](CO)C(=O)OCC1CC1)[C@H]1CCN(c2ncnc3[nH]ccc23)CC12CC2 [Example 91, cyclopropylmethyl (2R)-3-hydroxy-2-[[(8S)-5-(7H-pyrrolo[2,3-d]pyrimidin-4-yl)-5-azaspiro[2.5]octane-8-carbonyl]amino]propanoate] | 47.3 | 17 | 8.2 | 17.7 | 163
C[C@H](NC(=O)[C@H]1CCN(c2ncnc3[nH]ccc23)CC12CC2)[C@@H](O)c1ccc(C#N)cc1 [Example 43, (8S)-N-[(1S,2S)-2-(4-cyanophenyl)-2-hydroxy-1-methyl-ethyl]-5-(7H-pyrrolo[2,3-d]pyrimidin-4-yl)-5-azaspiro[2.5]octane-8-carboxamide] | 8.8 | 166 | 2.8 | 5.2 | 131
O=C(OCC1CC(F)(F)C1)[C@@H]1CCN(c2ncnc3[nH]ccc23)CC12CC2 [Example 155, (3,3-difluorocyclobutyl)methyl (8R)-5-(7H-pyrrolo[2,3-d]pyrimidin-4-yl)-5-azaspiro[2.5]octane-8-carboxylate] | 144 | > 200 | 30 | 58 | 1280
O=C(NCC1CC(F)(F)C1)[C@H]1CCN(c2ncnc3[nH]ccc23)CC12CC2 [Example 62, (8S)-N-[(3,3-difluorocyclobutyl)methyl]-5-(7H-pyrrolo[2,3-d]pyrimidin-4-yl)-5-azaspiro[2.5]octane-8-carboxamide] | 15.7 | 48 | 4.5 | 7 | 47.5
N#Cc1ccc([C@@H](CO)NC(=O)C2CCN(c3ncnc4[nH]ccc34)CC23CC3)cc1 (stereo partly drawn) [Example 94, N-[(1S)-1-(4-cyanophenyl)-2-hydroxy-ethyl]-5-(7H-pyrrolo[2,3-d]pyrimidin-4-yl)-5-azaspiro[2.5]octane-8-carboxamide] | 91.1 | 23 | 8.6 | 53.7 | 967
Cc1cc([C@H](O)[C@H](C)NC(=O)[C@H]2CCN(c3ncnc4[nH]ccc34)CC23CC3)ccc1F [Example 40, (8S)-N-[(1S,2S)-2-(4-fluoro-3-methyl-phenyl)-2-hydroxy-1-methyl-ethyl]-5-(7H-pyrrolo[2,3-d]pyrimidin-4-yl)-5-azaspiro[2.5]octane-8-carboxamide] | 39.5 | > 200 | 2.4 | 8.3 | 40.6
Cc1cc([C@H](O)CNC(=O)[C@H]2CCN(c3ncnc4[nH]ccc34)CC23CC3)ncc1F [Example 44, (8S)-N-[(2R)-2-(5-fluoro-4-methyl-2-pyridyl)-2-hydroxy-ethyl]-5-(7H-pyrrolo[2,3-d]pyrimidin-4-yl)-5-azaspiro[2.5]octane-8-carboxamide] | 68.5 | > 200 | 3.1 | 15.8 | 63.2
O=C(NC[C@H](O)C1CCC1)[C@H]1CCN(c2ncnc3[nH]ccc23)CC12CC2 [Example 25, (8S)-N-[(2R)-2-cyclobutyl-2-hydroxy-ethyl]-5-(7H-pyrrolo[2,3-d]pyrimidin-4-yl)-5-azaspiro[2.5]octane-8-carboxamide] | 13.6 | 46 | 1.3 | 3.4 | 11.1
O=C(NC[C@@H](O)c1ccc(F)cc1)[C@H]1CCN(c2ncnc3[nH]ccc23)CC12CC2 [Example 7, (8S)-N-[(2S)-2-(4-fluorophenyl)-2-hydroxy-ethyl]-5-(7H-pyrrolo[2,3-d]pyrimidin-4-yl)-5-azaspiro[2.5]octane-8-carboxamide] | 8.8 | > 200 | 0.6 | 1.7 | 4.9
N#CC1CC(CNC(=O)C2CCN(c3ncnc4[nH]ccc34)CC23CC3)C1 (stereo not drawn) [Example 59, N-[(3-cyanocyclobutyl)methyl]-5-(7H-pyrrolo[2,3-d]pyrimidin-4-yl)-5-azaspiro[2.5]octane-8-carboxamide] | 24.5 | 28 | 4.2 | 12.1 | 322
O=C(OCC1(CO)CCC1)[C@H]1CCN(c2ncnc3[nH]ccc23)CC12CC2 [Example 157, [1-(hydroxymethyl)cyclobutyl]methyl (8S)-5-(7H-pyrrolo[2,3-d]pyrimidin-4-yl)-5-azaspiro[2.5]octane-8-carboxylate] | 6.6 | > 200 | 0.8 | 2.1 | 9
N#Cc1ccc(CNC(=O)C2CCN(c3ncnc4[nH]ccc34)CC23CC3)nc1 (stereo not drawn) [Example 76, N-[(5-cyano-2-pyridyl)methyl]-5-(7H-pyrrolo[2,3-d]pyrimidin-4-yl)-5-azaspiro[2.5]octane-8-carboxamide] | 53.6 | 139 | 6.2 | 43.3 | –
COc1cc(CNC(=O)[C@H]2CCN(c3ncnc4[nH]ccc34)CC23CC3)ccc1C#N [Example 93, (8S)-N-[(4-cyano-3-methoxy-phenyl)methyl]-5-(7H-pyrrolo[2,3-d]pyrimidin-4-yl)-5-azaspiro[2.5]octane-8-carboxamide] | 74.1 | – | 8.5 | 29.3 | 118
O=C(NCC1(O)CCCC1)C1CCN(c2ncnc3[nH]ccc23)CC12CC2 (stereo not drawn) [Example 88, N-[(1-hydroxycyclopentyl)methyl]-5-(7H-pyrrolo[2,3-d]pyrimidin-4-yl)-5-azaspiro[2.5]octane-8-carboxamide] | 58.6 | – | 7.2 | 23.7 | 407
C[C@@H](NC(=O)[C@H]1CCN(c2ncnc3[nH]ccc23)CC12CC2)[C@@H](O)c1ccc(C#N)cc1 [Example 146, (8S)-N-[(1R,2S)-2-(4-cyanophenyl)-2-hydroxy-1-methyl-ethyl]-5-(7H-pyrrolo[2,3-d]pyrimidin-4-yl)-5-azaspiro[2.5]octane-8-carboxamide] | 266 | – | 67.7 | 188 | 1840
N#Cc1ccc([C@@H](CO)NC(=O)[C@H]2CCN(c3ncnc4[nH]ccc34)CC23CC3)nc1 [Example 108, (8S)-N-[(1S)-1-(5-cyano-2-pyridyl)-2-hydroxy-ethyl]-5-(7H-pyrrolo[2,3-d]pyrimidin-4-yl)-5-azaspiro[2.5]octane-8-carboxamide] | 85.1 | – | 10.3 | 48.2 | 347
O=C(N[C@H](CO)C(=O)OC1CCCC1)[C@H]1CCN(c2ncnc3[nH]ccc23)CC12CC2 [Example 96, cyclopentyl (2R)-3-hydroxy-2-[[(8S)-5-(7H-pyrrolo[2,3-d]pyrimidin-4-yl)-5-azaspiro[2.5]octane-8-carbonyl]amino]propanoate] | 59.2 | – | 8.7 | 28.7 | 250
C[C@@H](NC(=O)C1CCN(c2ncnc3[nH]ccc23)CC12CC2)c1ccccc1 (stereo partly drawn) [Example 136, N-[(1R)-1-phenylethyl]-5-(7H-pyrrolo[2,3-d]pyrimidin-4-yl)-5-azaspiro[2.5]octane-8-carboxamide] | 111 | – | 33.8 | 55.1 | 1460
O=C(NCc1cccnc1)C1CCN(c2ncnc3[nH]ccc23)CC12CC2 (stereo not drawn) [Example 128, N-(3-pyridylmethyl)-5-(7H-pyrrolo[2,3-d]pyrimidin-4-yl)-5-azaspiro[2.5]octane-8-carboxamide] | 58.6 | – | 20.5 | 38.2 | 1410
O=C(OCC1(CO)CCCCC1)[C@H]1CCN(c2ncnc3[nH]ccc23)CC12CC2 [Example 161, [1-(hydroxymethyl)cyclohexyl]methyl (8S)-5-(7H-pyrrolo[2,3-d]pyrimidin-4-yl)-5-azaspiro[2.5]octane-8-carboxylate] | – | > 200 | – | – | –
COc1ccc(CNC(=O)C2CCN(c3ncnc4[nH]ccc34)CC23CC3)cc1 (stereo not drawn) [Example 90, N-[(4-methoxyphenyl)methyl]-5-(7H-pyrrolo[2,3-d]pyrimidin-4-yl)-5-azaspiro[2.5]octane-8-carboxamide] | 34.5 | – | 8.2 | 19.6 | 288
COc1cc(C#N)ccc1[C@H](C)NC(=O)[C@H]1CCN(c2ncnc3[nH]ccc23)CC12CC2 [Example 97, (8S)-N-[(1S)-1-(4-cyano-2-methoxy-phenyl)ethyl]-5-(7H-pyrrolo[2,3-d]pyrimidin-4-yl)-5-azaspiro[2.5]octane-8-carboxamide] | 226 | – | 8.7 | 36 | 315
